Source: patent US12419852B2, “Method for treating lysosomal storage disease” (Exerkine Corporation, priority 2018, dated 2025)

How the values were obtained:
GAA knockout mice [1] = assay: Forelimb grip strength in GAA knockout mice (Pompe disease model); type: in vivo; conditions: change over the 8 week period, FIG. 1A
Method: (§1) To determine if the ketogenic agent and enhanced ketogenic composition could improve autophagic activity, muscle function and mitochondrial capacity in mice having a lysosomal storage disease, mice lacking the acid alpha glucosidase (GAA) protein (an established mouse model of Pompe disease) were administered the ketogenic agent, the enhanced ketogenic composition or one of several control diets for a period of 8 weeks.
(§2) Breeding of GAA mice. Four GAA heterozygous breeding pairs (HET; GAA−/+; 6neo/6+) were obtained from Jackson Laboratories (Maine, USA) to generate homozygous GAA knock-outs (GAA; GAA−/−; 6neo/6neo). Mice were housed at McMaster University's Central Animal Facility in standard cages in 12-h light/dark cycles with ad libitum access to water and their respective diets. […]
(§3) Grip strength, motor coordination, and balance were evaluated prior to the introduction of the experimental diets. Motor coordination and balance were evaluated using a rotarod apparatus (Harvard Apparatus, MA), while forelimb grip strength was evaluated using a metal gripping bar attached to a DFIS-10 Chatillon digital force gage. Upon completion of the baseline testing, all groups were administered their respective experimental diets for a period of 8 weeks, when grip strength, motor coordination, and balance were re-evaluated as endpoint measures. […]

GAA knockout mice [2] = assay: Rotarod performance (motor coordination and balance) in GAA knockout mice; type: in vivo; conditions: change over 8 weeks, FIG. 1B
Method: as §1, §2, §3

[3] = tested on: autophagic buildup in skeletal muscle of GAA knockout mice; assay: Autophagic buildup scored on electron micrographs of skeletal muscle; type: in vivo; conditions: skeletal muscle electron micrographs after 8 weeks; 0=no buildup to 3=severe, 7 micrographs; FIG. 2A
Method: (§4) Experimental groups All mice were fed standard rodent chow (chow diet; Harlan Teklad 8640 22/5), as a base diet with the exception of the group receiving a conventional […] diet (% kcal of SRT diet being 93.2% fat, 6.4% protein and 0.4% carbohydrates; Envigo, TD.07797). […]
(§5) Grip strength, motor coordination, and balance were evaluated prior to the introduction of the experimental diets. Motor coordination and balance were evaluated using a rotarod apparatus (Harvard Apparatus, MA), while forelimb grip strength was evaluated using a metal gripping bar attached to a DFIS-10 Chatillon digital force gage. Upon completion of the baseline testing, all groups were administered their respective experimental diets for a period of 8 weeks, when grip strength, motor coordination, and balance were re-evaluated as endpoint measures. […] The proteins p62, ubiquitin and mitochondrial complexes 1-5 were evaluated in quadriceps muscle using the following antibodies in 5% milk: p62 (Cell Signalling, Cat. #51145), ubiquitin (Enzo Life Sciences, Cat. #UG95100100) and Total OXPHOS Rodent WB Antibody Cocktail (Abcam, Cat. #ab110413). Autophagic buildup was determined using electron micrographs generated by the McMaster Electron Microscopy Facility. […]

p62 protein = assay: Western blotting for p62 in quadriceps muscle; type: in vivo, mice; conditions: western blot, after 8 weeks, FIG. 2B
Method: as §4, §5

[4] = tested on: Complex IV enzyme activity; assay: Complex IV (COX IV) enzymatic activity in quadriceps muscle; type: in vivo, mice; conditions: skeletal muscle, after 8 weeks
Source text: as §4
To measure COX IV enzymatic activity, quadriceps muscle was homogenized in Lysing Matrix D tubes (MP Biomedicals, Solon, OH, USA) using the FastPrep-24 Tissue and Cell Homogenizer (MP Biomedicals, Solon, OH, USA) for 5×5-second cycles at a speed of 4.0 m/s with samples placed on ice for 5 minutes between cycles. […] The rate of oxidation of reduced cytochrome c was measured at 550 nm for 3 min at 37° C.

[5] = tested on: mitochondrial complexes 1-5; assay: Western blotting for mitochondrial complexes 1-5 protein in quadriceps muscle; type: in vivo, mice; conditions: western blot, range over the five complexes, FIGS. 3B-F
Method: as §4, §5

[6] = Pompe disease, 2 weeks after the infusion; cited from earlier work

Row | Molecule | decline in forelimb grip strength (GAA knockout mice [1]) | improvement in duration of time able to balance on the rotarod apparatus (GAA knockout mice [2]) | autophagic buildup score (per mouse total score out of 21) [3] | p62 protein expression lower than GAA CON group (p62 protein) [%] | ratio of mean complex IV enzyme activity to mean complex IV protein content, lower compared to WT CON [4] [%] | protein levels of mitochondrial complexes 1-5 higher compared to WT CON [5] | fraction of infused protein retained within skeletal muscle [6]
1 | CC(O)CCO (stereo not shown) [ERT+1,3 BD, 1,3 butanediol] | relatively unchanged | 46% | 12/21 | 59 | 41 | 219-647% | –
2 | ERT: Enzyme replacement therapy: bi-weekly intravenous injections of 40 mg/kg recombinant GAA enzyme (Myozyme; Genzyme) | 20% | little or no change | 15/21 | 23 | 43 | 103-250% | –
3 | recombinant GAA protein: Infused recombinant acid alpha-glucosidase (GAA) protein used as enzyme replacement therapy in Pompe disease | – | – | – | – | – | – | 1-3%
